From US20230279025A1, “KRAS G12D INHIBITORS” (Mirati Therapeutics, Inc., priority 2020, published 2023)
Counter-ions that a name gives are not always drawn.

Molecular target: KRas G12D (Homo sapiens (Human), UniProt P01116, G12D)
Assay: KRas G12D Binding Assay (TR-FRET displacement of Cy5 labelled tracer)
Details: GDP-loaded KRAS G12D (amino acids 1:169), 60 minute incubation at 22° C.
Protocol: After a 60 minute incubation at 22° C., the reaction was measured using a PerkinElmer EnVision multimode plate reader via TR-FRET dual wavelength detection, and the percent of control (POC) calculated using a ratiometric emission factor. […] The POC values were fit to a 4-parameter logistic curve and the IC50 value was determined as the concentration where the curve crosses 50 POC.
ND stands for “not determined.”

Sequence of KRas G12D (P01116 other isoform, or with tags, fused parts or gaps G12D): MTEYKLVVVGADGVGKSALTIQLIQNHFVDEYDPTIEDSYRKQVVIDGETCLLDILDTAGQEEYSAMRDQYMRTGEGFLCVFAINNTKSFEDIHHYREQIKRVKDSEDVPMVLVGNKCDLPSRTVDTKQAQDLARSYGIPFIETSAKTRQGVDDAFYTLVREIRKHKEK

Row | SMILES | IC50
1 | Cn1ccc2cccc(-c3ncc4c(N5C[C@H]6CC[C@@H](C5)N6)nc(OCC56CCCN5CCC6)nc4c3F)c21 [Example 446, 4-((1R,5S)-3,8-diazabicyclo[3.2.1]octan-3-yl)-8-fluoro-7-(1-methyl-1H-indol-7-yl)-2-((tetrahydro-1H-pyrrolizin-7a(5H)-yl)methoxy)pyrido[4,3-d]pyrimidine] | 357 nM
2 | N#Cc1cccc2cccc(-c3ncc4c(N5C[C@H]6CC[C@@H](C5)N6)nc(OCC56CCCN5CCC6)nc4c3F)c12 [Example 198, 8-(4-((1R,5S)-3,8-diazabicyclo[3.2.1]octan-3-yl)-8-fluoro-2-((tetrahydro-1H-pyrrolizin-7a(5H)-yl)methoxy)pyrido[4,3-d]pyrimidin-7-yl)-1-naphthonitrile] | 20.3 nM
3 | CCC1(N)CN(c2nc(N3C[C@H]4CC[C@@H](C3)N4)c3cnc(-c4cccc5cccc(Cl)c45)c(F)c3n2)C1 [Example 128, 1-(4-((1R,5S)-3,8-diazabicyclo[3.2.1]octan-3-yl)-7-(8-chloronaphthalen-1-yl)-8-fluoropyrido[4,3-d]pyrimidin-2-yl)-3-ethylazetidin-3-amine] | 501 nM
4 | Fc1c(-c2cccc3cccc(CC(F)F)c23)ncc2c(N3C[C@H]4CC[C@@H](C3)N4)nc(OCC34CCCN3CCC4)nc12 [Example 247, 4-((1R,5S)-3,8-diazabicyclo[3.2.1]octan-3-yl)-7-(8-(2,2-difluoroethyl)naphthalen-1-yl)-8-fluoro-2-((hexahydro-1H-pyrrolizin-7a-yl)methoxy)pyrido[4,3-d]pyrimidine] | 12.6 nM
5 | Nc1c(Cl)cc(Cl)c(F)c1-c1ncc2c(N3C[C@H]4CC[C@@H](C3)N4)nc(OCC34CCCN3CCC4)nc2c1F [Example 266, 2-(4-((1R,5S)-3,8-diazabicyclo[3.2.1]octan-3-yl)-8-fluoro-2-((hexahydro-1H-pyrrolizin-7a-yl)methoxy)pyrido[4,3-d]pyrimidin-7-yl)-4,6-dichloro-3-fluoroaniline] | 278 nM
6 | CCc1cccc2cc(O)cc(-c3ncc4c(N5C[C@H]6CC[C@@H](C5)N6)nc(OC[C@@]56CCCN5C[C@H](F)C6)nc4c3F)c12 [Example 259, 4-(4-((1R,5S)-3,8-diazabicyclo[3.2.1]octan-3-yl)-8-fluoro-2-(((2R,7aS)-2-fluorotetrahydro-1H-pyrrolizin-7a(5H)-yl)methoxy)pyrido[4,3-d]pyrimidin-7-yl)-5-ethylnaphthalen-2-ol] | 0.8 nM
7 | Fc1c(-c2cncc3cccc(Cl)c23)ncc2c(N3C[C@H]4CC[C@@H](C3)N4)nc(OC[C@]34CCCN3C[C@@H](F)C4)nc12 [Example 203, 4-((1R,5S)-3,8-diazabicyclo[3.2.1]octan-3-yl)-7-(5-chloroisoquinolin-4-yl)-8-fluoro-2-(((2S,7aR)-2-fluorotetrahydro-1H-pyrrolizin-7a(5H)-yl)methoxy)pyrido[4,3-d]pyrimidine] | 28.1 nM
8 | Fc1c(-c2cccc3cccc(Cl)c23)ncc2c(N3C[C@H]4CC[C@@H](C3)N4)nc(OC[C@H]3CCCO3)nc12 [Example 137, 4-((1R,5S)-3,8-diazabicyclo[3.2.1]octan-3-yl)-7-(8-chloronaphthalen-1-yl)-8-fluoro-2-(((R)-tetrahydrofuran-2-yl)methoxy)pyrido[4,3-d]pyrimidine] | 2630 nM
9 | O=C1CCC2(COc3nc(N4CC5CCC(C4)N5)c4cnc(-c5cc(O)cc6ccccc56)c(F)c4n3)CCCN12 (stereo not drawn) [Example 462, 7a-(((4-(3,8-diazabicyclo[3.2.1]octan-3-yl)-8-fluoro-7-(3-hydroxynaphthalen-1-yl)pyrido[4,3-d]pyrimidin-2-yl)oxy)methyl)tetrahydro-1H-pyrrolizin-3(2H)-one] | 0.751 nM
10 | Fc1c(-c2c(C(F)(F)F)ccc3[nH]ncc23)ncc2c(N3C[C@H]4CC[C@@H](C3)N4)nc(OCC34CCCN3CCC4)nc12 [Example 344, 4-((1R,5S)-3,8-diazabicyclo[3.2.1]octan-3-yl)-8-fluoro-2-((tetrahydro-1H-pyrrolizin-7a(5H)-yl)methoxy)-7-(5-(trifluoromethyl)-1H-indazol-4-yl)pyrido[4,3-d]pyrimidine] | 10.9 nM
11 | Fc1c(-c2cnccc2C(F)(F)F)ncc2c(N3CC4CCC(C3)N4)nc(OC[C@@]34CCCN3C[C@H](F)C4)nc12 (stereo in doubt) [Example 415, 4-((1R,5S)-3,8-diazabicyclo[3.2.1]octan-3-yl)-8-fluoro-2-((2-fluorotetrahydro-1H-pyrrolizin-7a(5H)-yl)methoxy)-7-(4-(trifluoromethyl)pyridin-3-yl)pyrido[4,3-d]pyrimidine] | 2580 nM
12 | CCNc1c(F)cccc1-c1ncc2c(N3C[C@H]4CC[C@@H](C3)N4)nc(OCC34CCCN3CCC4)nc2c1F [Example 269, 2-(4-((1R,5S)-3,8-diazabicyclo[3.2.1]octan-3-yl)-8-fluoro-2-((hexahydro-1H-pyrrolizin-7a-yl)methoxy)pyrido[4,3-d]pyrimidin-7-yl)-N-ethyl-6-fluoroaniline] | 4040 nM
13 | CCc1cccc2cccc(-c3ncc4c(N5C[C@H]6CC[C@@H](C5)N6)nc(OCC56CCCN5CCC6)nc4c3F)c12 [Example 187, 4-((1R,5S)-3,8-diazabicyclo[3.2.1]octan-3-yl)-7-(8-ethylnaphthalen-1-yl)-8-fluoro-2-((tetrahydro-1H-pyrrolizin-7a(5H)-yl)methoxy)pyrido[4,3-d]pyrimidine] | 1.7 nM
14 | Cc1cccc(-c2ncc3c(N4C[C@H]5CC[C@@H](C4)N5)nc(OCC45CCCN4CCC5)nc3c2F)c1Cl [Example 276, 4-((1R,5S)-3,8-diazabicyclo[3.2.1]octan-3-yl)-7-(2-chloro-3-methylphenyl)-8-fluoro-2-((hexahydro-1H-pyrrolizin-7a-yl)methoxy)pyrido[4,3-d]pyrimidine] | 16.2 nM
15 | Oc1cc(-c2ncc3c(N4CC5C[C@@H](n6cncn6)C(C4)N5)nc(OC[C@@]45CCCN4C[C@H](F)C5)nc3c2F)c2ccccc2c1 (mixture of isomers) [Example 333, 4-(4-((6R)-6-(1H-1,2,4-triazol-1-yl)-3,8-diazabicyclo[3.2.1]octan-3-yl)-8-fluoro-2-((2-fluorotetrahydro-1H-pyrrolizin-7a(5H)-yl)methoxy)pyrido[4,3-d]pyrimidin-7-yl)naphthalen-2-ol (racemic, trans)] | 450 nM
16 | CN1CCC[C@H]1COc1nc(N2C[C@H]3CC[C@@H](C2)N3)c2cnc(-c3cc(O)cc4cccc(Cl)c34)c(F)c2n1 [Example 63, 4-(4-((1R,5S)-3,8-diazabicyclo[3.2.1]octan-3-yl)-8-fluoro-2-(((S)-1-methylpyrrolidin-2-yl)methoxy)pyrido[4,3-d]pyrimidin-7-yl)-5-chloronaphthalen-2-ol] | 0.4 nM
17 | COC1CN2CCCC2(COc2nc(N3CC4CCC(C3)N4)c3cnc(-c4cc(O)cc5cccc(F)c45)c(F)c3n2)C1 (mixture of isomers) [Example 388, 4-(4-((1R,5S)-3,8-diazabicyclo[3.2.1]octan-3-yl)-8-fluoro-2-((2-methoxytetrahydro-1H-pyrrolizin-7a(5H)-yl)methoxy)pyrido[4,3-d]pyrimidin-7-yl)-5-fluoronaphthalen-2-ol] | 0.6 nM
18 | CC(C)c1ccccc1-c1ncc2c(N3C[C@H]4CC[C@@H](C3)N4)nc(OCC34CCCN3CCC4)nc2c1F [Example 309, 4-((1R,5S)-3,8-diazabicyclo[3.2.1]octan-3-yl)-8-fluoro-7-(2-isopropylphenyl)-2-((tetrahydro-1H-pyrrolizin-7a(5H)-yl)methoxy)pyrido[4,3-d]pyrimidine] | 205 nM
19 | Fc1c(-c2cccc3cccc(Cl)c23)ncc2c(N3CC4CCC(C3)N4)nc(OC[C@]34CCCN3C[C@H](c3ccccc3)C4)nc12 (stereo in doubt) [Example 221, 4-((1R,5S)-3,8-diazabicyclo[3.2.1]octan-3-yl)-7-(8-chloronaphthalen-1-yl)-8-fluoro-2-((2-phenyltetrahydro-1H-pyrrolizin-7a(5H)-yl)methoxy)pyrido[4,3-d]pyrimidine bis-hydrochloride salt] | 15.7 nM
20 | CC(C)c1c(Cl)cc(O)cc1-c1ncc2c(N3C[C@H]4CC[C@@H](C3)N4)nc(OC[C@@]34CCCN3C[C@H](F)C4)nc2c1F [Example 291, 3-(4-((1R,5S)-3,8-diazabicyclo[3.2.1]octan-3-yl)-8-fluoro-2-(((2R,7aS)-2-fluorohexahydro-1H-pyrrolizin-7a-yl)methoxy)pyrido[4,3-d]pyrimidin-7-yl)-5-chloro-4-isopropylphenol] | 1.6 nM
21 | CN(C)C(=O)NC[C@H]1CC[C@@]2(COc3nc(N4CC5CCC(C4)N5)c4cnc(-c5cccc6cccc(Cl)c56)c(F)c4n3)CCCN12 [Example 412, 3-((7a-(((4-(3,8-diazabicyclo[3.2.1]octan-3-yl)-7-(8-chloronaphthalen-1-yl)-8-fluoropyrido[4,3-d]pyrimidin-2-yl)oxy)methyl)hexahydro-1H-pyrrolizin-3-yl)methyl)-1,1-dimethylurea] | 17.7 nM
22 | CCc1cccc2cccc(-c3ncc4c(N5C[C@H]6CC[C@@H](C5)N6)nc(OC[C@@]56CCCN5C[C@H](F)C6)nc4c3F)c12 [Example 465, 4-((1R,5S)-3,8-diazabicyclo[3.2.1]octan-3-yl)-7-(8-ethylnaphthalen-1-yl)-8-fluoro-2-(((2R,7aS)-2-fluorohexahydro-1H-pyrrolizin-7a-yl)methoxy)pyrido[4,3-d]pyrimidine] | 0.001 nM
23 | O[C@@H]1C[C@@H]2CN(c3nc(OCCc4ccc(F)cn4)nc4c(F)c(-c5cccc6cccc(Cl)c56)ncc34)C[C@H]1N2 [Example 32, (1R,5R,6R)-3-(7-(8-chloronaphthalen-1-yl)-8-fluoro-2-(2-(5-fluoropyridin-2-yl)ethoxy)pyrido[4,3-d]pyrimidin-4-yl)-3,8-diazabicyclo[3.2.1]octan-6-ol] | 2140 nM
24 | CC(C)Cc1ccccc1-c1ncc2c(N3CC4CCC(C3)N4)nc(OC[C@@]34CCCN3C[C@H](F)C4)nc2c1F (stereo in doubt) [Example 417, 4-((1R,5S)-3,8-diazabicyclo[3.2.1]octan-3-yl)-8-fluoro-2-((2-fluorotetrahydro-1H-pyrrolizin-7a(5H)-yl)methoxy)-7-(2-isobutylphenyl)pyrido[4,3-d]pyrimidine] | 595 nM
